For the experiment, the system named is SCLC 510A xenografts. The experiment is described as follows: RNA-seq PD gene change in H510A SCLC xenograft mouse model. It counts as in vivo, mice. The conditions noted are these: for ASCL1 Log2FC / GRP Log2FC / NOTCH1 Log2FC: vs vehicle. Here is the method:
Female athymic nude mice, approximately 7-8-week old animals, were injected with 5 million H510A cells per 50 μL PBS and 50 μL Matrigel (BD Bioscience) into the right flank of each animal. After tumor growth reached 200-300 mm3, animals were distributed in three homogeneous groups with similar mean tumor volume and SD. Animals were treated with vehicle, 20 μg/Kg and 40 μg/Kg of (trans)-N1-((1R,2S)-2-phenylcyclopropyl)cyclohexane-1,4-diamine for 3 weeks according to the 5 days on/2 days off schedule.
Mice were sacrificed at day 35 at 1, 6 and 24 hours post last injection. Blood was extracted in Microvette® (Sarstedt) tubes, centrifuged on a bench-top centrifuge at 2000 rpm for 15 min at 4 C. Supernatant was stored at −80° C. Tumors were removed and divided in 3 parts: ⅓ was immersed in RNA-Later and snap frozen for subsequent analysis. Frozen material was stored at −80° C. before shipment.
Whole transcriptomic RNA sequencing procedure is identical to that as described in Example 1. Raw RNASeq reads were aligned to the mouse and the human transcriptome using GSNAP and were then analyzed. Reads mapped to both organisms were filtered out and only reads that were uniquely aligned to human or mouse were used to profile the respective genes. The log 2 fold change of three candidate PD markers between (trans)-N1-((1R,2S)-2-phenylcyclopropyl)cyclohexane-1,4-diamine treated and vehicle treated samples were calculated using DESeq2 package (Love et al.).

[1] abbreviates: 20 μg/kg, 1 h post last injection.
The mark [2] stands for this setting: 20 μg/kg, 6 h post last injection.
Setting [3] is: 20 μg/kg, 24 h post last injection.
The mark [4] stands for this setting: 40 μg/kg, 1 h post last injection.
[5] abbreviates: 40 μg/kg, 6 h post last injection.
Setting [6] is: 40 μg/kg, 24 h post last injection.

As to `N[C@H]1CC[C@H](N[C@@H]2C[C@H]2c2ccccc2)CC1` [RG6016, (trans)-N1-((1R,2S)-2-phenylcyclopropyl)cyclohexane-1,4-diamine], the “ASCL1 Log2FC” value is, setting by setting: under setting [1], −0.525; under setting [2], −0.545; under setting [3], −0.472; under setting [4], −0.783; under setting [5], −0.825; under setting [6], −1.286. Besides, the “GRP Log2FC” value was −1.607 under setting [1]; −0.794 under setting [2]; −1.205 under setting [3]; −1.75 under setting [4]; −1.421 under setting [5]; −2.742 under setting [6]. Besides, the “NOTCH1 Log2FC” value turned out to be 1.947 under setting [1]; 1.388 under setting [2]; 1.679 under setting [3]; 2.727 under setting [4]; 2.321 under setting [5]; 3.423 under setting [6]. Besides, the “ASCL1 transcript down regulation (FIG. 9)” value (SCLC 510A xenografts) is “dose and time dependent”. Besides, the “GRP transcript down regulation (FIG. 10)” value (SCLC 510A xenografts) is “dose and time dependent”. Also, the “NOTCH1 transcript up regulation (FIG. 11)” value (SCLC 510A xenografts) is “dose and time dependent”.

The values are drawn from patent US20190256929A1, “PHARMACODYNAMIC BIOMARKERS FOR PERSONALIZED CANCER CARE USING EPIGENETIC MODIFYING AGENTS” (ORYZON GENOMICS, S.A., priority 2016, published 2019).
